Legend:
[1] = target: Receptor-interacting serine/threonine-protein kinase 1 (Homo sapiens) (UniProt Q13546); settings: Compound concentration 100.0 nM
[2] = target: Uncharacterized serine/threonine-protein kinase SBK3 (Homo sapiens) (UniProt P0C264); settings: Compound concentration 100.0 nM
[3] = target: Ephrin type-B receptor 3 (Homo sapiens) (UniProt P54753); settings: Compound concentration 100.0 nM
[4] = target: Transient receptor potential cation channel subfamily M member 6 (Homo sapiens) (UniProt Q9BX84); settings: Compound concentration 100.0 nM
[5] = test system: Epidermal growth factor receptor (Homo sapiens), P00533 [UNDEFINED MUTATION]; settings: Compound concentration 100.0 nM
[6] = target: Tyrosine-protein kinase Fgr (Homo sapiens) (UniProt P09769); settings: Compound concentration 100.0 nM
[7] = target: Histamine H3 receptor (Homo sapiens) (UniProt Q9Y5N1); settings: Compound concentration 10.0 uM
[8] = target: Interferon-induced, double-stranded RNA-activated protein kinase (Homo sapiens) (UniProt P19525); settings: Compound concentration 100.0 nM
[9] = target: Ephrin type-B receptor 6 (Homo sapiens) (UniProt O15197); settings: Compound concentration 100.0 nM
[10] = target: Ribosomal protein S6 kinase alpha-3 (Homo sapiens) (UniProt P51812); settings: Compound concentration 100.0 nM
[11] = target: 5'-AMP-activated protein kinase catalytic subunit alpha-2 (Homo sapiens) (UniProt P54646); settings: Compound concentration 100.0 nM
[12] = test system: Receptor-type tyrosine-protein kinase FLT3 (Homo sapiens), P36888 [UNDEFINED MUTATION]; settings: Compound concentration 100.0 nM
[13] = target: 1-phosphatidylinositol 3-phosphate 5-kinase (Homo sapiens) (UniProt Q9Y2I7); settings: Compound concentration 100.0 nM
[14] = target: Tyrosine-protein kinase TXK (Homo sapiens) (UniProt P42681); settings: Compound concentration 100.0 nM
[15] = target: Phosphatidylinositol 4,5-bisphosphate 3-kinase catalytic subunit delta isoform (Homo sapiens) (UniProt O00329); settings: Compound concentration 100.0 nM
[16] = target: Cyclin-dependent kinase 3 (Homo sapiens) (UniProt Q00526); settings: Compound concentration 100.0 nM
[17] = target: Phosphatidylinositol 5-phosphate 4-kinase type-2 beta (Homo sapiens) (UniProt P78356); settings: Compound concentration 100.0 nM
[18] = target: Serine/threonine-protein kinase pim-3 (Homo sapiens) (UniProt Q86V86); settings: Compound concentration 100.0 nM
[19] = target: ALK tyrosine kinase receptor (Homo sapiens) (UniProt Q9UM73); settings: Compound concentration 100.0 nM
[20] = target: Platelet-derived growth factor receptor beta (Homo sapiens) (UniProt P09619); settings: Compound concentration 100.0 nM
[21] = target: Insulin-like growth factor 1 receptor (Homo sapiens) (UniProt P08069); settings: Compound concentration 100.0 nM
[22] = target: Ribosomal protein S6 kinase beta-1 (Homo sapiens) (UniProt P23443); settings: Compound concentration 100.0 nM
[23] = target: Mitogen-activated protein kinase kinase kinase 3 (Homo sapiens) (UniProt Q99759); settings: Compound concentration 100.0 nM
[24] = target: Ephrin type-A receptor 5 (Homo sapiens) (UniProt P54756); settings: Compound concentration 100.0 nM
[25] = target: Dual specificity protein kinase CLK1 (Homo sapiens) (UniProt P49759); settings: Compound concentration 100.0 nM
Sequence of Dual specificity protein kinase CLK1 (Homo sapiens) (P49759 whole entry, looked up): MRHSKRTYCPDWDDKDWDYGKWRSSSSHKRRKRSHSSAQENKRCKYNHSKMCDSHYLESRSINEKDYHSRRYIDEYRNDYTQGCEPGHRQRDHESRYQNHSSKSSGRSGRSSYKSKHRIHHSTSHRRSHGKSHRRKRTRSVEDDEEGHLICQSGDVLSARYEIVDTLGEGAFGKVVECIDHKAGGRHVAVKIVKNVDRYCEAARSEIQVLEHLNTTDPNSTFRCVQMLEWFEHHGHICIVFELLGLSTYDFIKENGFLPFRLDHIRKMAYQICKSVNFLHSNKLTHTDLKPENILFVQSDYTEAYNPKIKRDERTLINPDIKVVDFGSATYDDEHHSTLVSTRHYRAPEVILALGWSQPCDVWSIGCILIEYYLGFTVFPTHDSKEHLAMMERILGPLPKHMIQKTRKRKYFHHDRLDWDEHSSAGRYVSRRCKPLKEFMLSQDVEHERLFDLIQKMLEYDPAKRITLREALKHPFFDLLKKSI

[26] = target: Serine/threonine-protein kinase WNK4 (Homo sapiens) (UniProt Q96J92); settings: Compound concentration 100.0 nM
[27] = target: Ephrin type-A receptor 7 (Homo sapiens) (UniProt Q15375); settings: Compound concentration 100.0 nM
[28] = target: Ribosomal protein S6 kinase alpha-5 (Homo sapiens) (UniProt O75582); settings: Compound concentration 100.0 nM
Sequence of Ribosomal protein S6 kinase alpha-5 (Homo sapiens) (O75582 whole entry, looked up): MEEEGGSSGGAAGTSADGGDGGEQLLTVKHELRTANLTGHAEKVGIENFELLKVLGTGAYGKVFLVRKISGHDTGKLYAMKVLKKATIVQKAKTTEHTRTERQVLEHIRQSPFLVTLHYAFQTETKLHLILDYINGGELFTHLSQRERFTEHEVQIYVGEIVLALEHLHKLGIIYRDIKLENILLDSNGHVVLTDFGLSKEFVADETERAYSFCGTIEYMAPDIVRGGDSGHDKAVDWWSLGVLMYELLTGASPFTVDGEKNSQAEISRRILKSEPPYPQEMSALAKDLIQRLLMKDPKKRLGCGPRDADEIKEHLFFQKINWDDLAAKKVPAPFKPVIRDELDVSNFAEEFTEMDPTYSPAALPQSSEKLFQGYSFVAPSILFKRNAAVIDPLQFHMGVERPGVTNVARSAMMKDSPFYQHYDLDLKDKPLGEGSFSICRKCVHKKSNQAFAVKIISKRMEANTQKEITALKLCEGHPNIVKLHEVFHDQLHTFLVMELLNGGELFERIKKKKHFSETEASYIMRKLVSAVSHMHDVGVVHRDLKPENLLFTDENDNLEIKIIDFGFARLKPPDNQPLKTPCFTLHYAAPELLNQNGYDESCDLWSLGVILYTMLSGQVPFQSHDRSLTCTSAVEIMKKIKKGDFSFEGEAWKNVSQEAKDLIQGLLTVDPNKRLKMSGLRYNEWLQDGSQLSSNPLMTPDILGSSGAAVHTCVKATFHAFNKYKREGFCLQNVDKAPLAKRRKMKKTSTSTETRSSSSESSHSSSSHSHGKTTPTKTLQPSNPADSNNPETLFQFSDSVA

[29] = target: Mitogen-activated protein kinase kinase kinase 1 (Homo sapiens) (UniProt Q13233); settings: Compound concentration 100.0 nM
[30] = target: Calcium/calmodulin-dependent protein kinase type II subunit beta (Homo sapiens) (UniProt Q13554); settings: Compound concentration 100.0 nM
[31] = target: GABA-A receptor; anion channel (Rattus norvegicus) (UniProt O09028+P15431+P18506+P18508+P19969+P20236+P23574+P23576+P28471+P28473+P30191+P62813+P63079+P63138+Q91ZM7+Q9ES14); settings: Compound concentration 10.0 uM
[32] = target: Serine/threonine-protein kinase D3 (Homo sapiens) (UniProt O94806); settings: Compound concentration 100.0 nM
[33] = target: Aurora kinase B (Homo sapiens) (UniProt Q96GD4); settings: Compound concentration 100.0 nM
Sequence of Aurora kinase B (Homo sapiens) (Q96GD4 whole entry): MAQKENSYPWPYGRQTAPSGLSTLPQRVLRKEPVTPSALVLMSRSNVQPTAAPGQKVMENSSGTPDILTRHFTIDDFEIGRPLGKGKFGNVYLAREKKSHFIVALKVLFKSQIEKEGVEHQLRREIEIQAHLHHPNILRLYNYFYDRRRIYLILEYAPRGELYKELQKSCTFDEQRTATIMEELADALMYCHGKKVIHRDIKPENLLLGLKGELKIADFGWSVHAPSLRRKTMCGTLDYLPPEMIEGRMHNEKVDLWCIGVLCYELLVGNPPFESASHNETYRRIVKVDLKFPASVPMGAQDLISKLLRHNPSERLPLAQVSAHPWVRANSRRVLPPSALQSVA

[34] = target: Serine/threonine-protein kinase 26 (Homo sapiens) (UniProt Q9P289); settings: Compound concentration 100.0 nM
[35] = target: Serine/threonine-protein kinase TBK1 (Homo sapiens) (UniProt Q9UHD2); settings: Compound concentration 100.0 nM
[36] = target: Dual specificity mitogen-activated protein kinase kinase 1 (Homo sapiens) (UniProt Q02750); settings: Compound concentration 100.0 nM
Sequence of Dual specificity mitogen-activated protein kinase kinase 1 (Homo sapiens) (Q02750 whole entry): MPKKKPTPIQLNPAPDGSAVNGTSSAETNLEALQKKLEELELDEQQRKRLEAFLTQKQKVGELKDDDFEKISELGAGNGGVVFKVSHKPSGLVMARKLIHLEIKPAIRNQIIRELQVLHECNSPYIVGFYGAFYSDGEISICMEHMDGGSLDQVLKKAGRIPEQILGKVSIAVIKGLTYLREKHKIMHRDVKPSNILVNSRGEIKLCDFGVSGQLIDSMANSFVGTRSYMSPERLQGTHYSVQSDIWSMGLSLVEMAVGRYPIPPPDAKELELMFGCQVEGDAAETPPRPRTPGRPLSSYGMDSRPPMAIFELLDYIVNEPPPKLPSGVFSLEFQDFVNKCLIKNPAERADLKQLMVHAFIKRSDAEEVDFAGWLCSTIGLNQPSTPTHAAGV

[37] = target: Tyrosine-protein kinase HCK (Homo sapiens) (UniProt P08631); settings: Compound concentration 100.0 nM
[38] = target: Receptor tyrosine-protein kinase erbB-2 (Homo sapiens) (UniProt P04626); settings: Compound concentration 100.0 nM
Sequence of Receptor tyrosine-protein kinase erbB-2 (Homo sapiens) (P04626 whole entry): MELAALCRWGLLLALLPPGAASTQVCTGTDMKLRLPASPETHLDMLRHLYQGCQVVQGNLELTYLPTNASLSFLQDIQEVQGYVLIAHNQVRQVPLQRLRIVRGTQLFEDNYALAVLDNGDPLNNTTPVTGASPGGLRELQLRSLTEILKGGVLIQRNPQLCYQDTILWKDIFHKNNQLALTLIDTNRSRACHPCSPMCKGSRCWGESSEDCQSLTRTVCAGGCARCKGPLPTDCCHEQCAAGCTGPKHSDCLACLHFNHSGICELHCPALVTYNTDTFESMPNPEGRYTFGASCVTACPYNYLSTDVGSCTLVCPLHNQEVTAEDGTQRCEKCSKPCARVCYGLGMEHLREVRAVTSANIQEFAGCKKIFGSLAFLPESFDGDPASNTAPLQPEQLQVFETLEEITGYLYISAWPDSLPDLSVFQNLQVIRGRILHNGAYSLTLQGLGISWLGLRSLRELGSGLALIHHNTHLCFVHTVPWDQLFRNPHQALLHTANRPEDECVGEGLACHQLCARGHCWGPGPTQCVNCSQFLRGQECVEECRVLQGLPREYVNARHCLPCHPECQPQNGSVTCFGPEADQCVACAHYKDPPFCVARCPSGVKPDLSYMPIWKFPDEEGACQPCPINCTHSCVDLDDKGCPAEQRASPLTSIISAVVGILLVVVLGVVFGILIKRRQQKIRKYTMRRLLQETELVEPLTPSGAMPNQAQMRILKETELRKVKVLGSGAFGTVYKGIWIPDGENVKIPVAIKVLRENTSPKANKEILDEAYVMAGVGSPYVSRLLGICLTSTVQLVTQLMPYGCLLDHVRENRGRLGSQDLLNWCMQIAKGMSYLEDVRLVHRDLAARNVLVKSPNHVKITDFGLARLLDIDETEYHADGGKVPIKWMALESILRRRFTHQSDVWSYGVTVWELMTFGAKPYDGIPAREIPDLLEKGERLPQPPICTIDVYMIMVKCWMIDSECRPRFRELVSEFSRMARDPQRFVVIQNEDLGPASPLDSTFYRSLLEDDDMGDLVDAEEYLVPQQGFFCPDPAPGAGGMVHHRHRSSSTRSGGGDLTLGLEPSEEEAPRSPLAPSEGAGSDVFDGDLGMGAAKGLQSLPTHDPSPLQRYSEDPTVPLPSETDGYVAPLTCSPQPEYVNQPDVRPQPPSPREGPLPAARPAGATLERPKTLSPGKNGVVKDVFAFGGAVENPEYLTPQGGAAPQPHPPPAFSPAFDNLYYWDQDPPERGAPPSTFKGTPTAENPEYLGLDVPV

[39] = target: Cyclin-G-associated kinase (Homo sapiens) (UniProt O14976); settings: Compound concentration 100.0 nM
[40] = test system: Phosphatidylinositol 4,5-bisphosphate 3-kinase catalytic subunit alpha isoform (Homo sapiens), P42336 [E542K]; settings: Compound concentration 100.0 nM
[41] = target: Mast/stem cell growth factor receptor Kit (Homo sapiens) (UniProt P10721); settings: Compound concentration 100.0 nM
[42] = target: Dual specificity mitogen-activated protein kinase kinase 7 (Homo sapiens) (UniProt O14733); settings: Compound concentration 100.0 nM
[43] = target: Fibroblast growth factor receptor 2 (Homo sapiens) (UniProt P21802); settings: Compound concentration 100.0 nM
Sequence of Fibroblast growth factor receptor 2 (Homo sapiens) (P21802 22-821 limits assumed): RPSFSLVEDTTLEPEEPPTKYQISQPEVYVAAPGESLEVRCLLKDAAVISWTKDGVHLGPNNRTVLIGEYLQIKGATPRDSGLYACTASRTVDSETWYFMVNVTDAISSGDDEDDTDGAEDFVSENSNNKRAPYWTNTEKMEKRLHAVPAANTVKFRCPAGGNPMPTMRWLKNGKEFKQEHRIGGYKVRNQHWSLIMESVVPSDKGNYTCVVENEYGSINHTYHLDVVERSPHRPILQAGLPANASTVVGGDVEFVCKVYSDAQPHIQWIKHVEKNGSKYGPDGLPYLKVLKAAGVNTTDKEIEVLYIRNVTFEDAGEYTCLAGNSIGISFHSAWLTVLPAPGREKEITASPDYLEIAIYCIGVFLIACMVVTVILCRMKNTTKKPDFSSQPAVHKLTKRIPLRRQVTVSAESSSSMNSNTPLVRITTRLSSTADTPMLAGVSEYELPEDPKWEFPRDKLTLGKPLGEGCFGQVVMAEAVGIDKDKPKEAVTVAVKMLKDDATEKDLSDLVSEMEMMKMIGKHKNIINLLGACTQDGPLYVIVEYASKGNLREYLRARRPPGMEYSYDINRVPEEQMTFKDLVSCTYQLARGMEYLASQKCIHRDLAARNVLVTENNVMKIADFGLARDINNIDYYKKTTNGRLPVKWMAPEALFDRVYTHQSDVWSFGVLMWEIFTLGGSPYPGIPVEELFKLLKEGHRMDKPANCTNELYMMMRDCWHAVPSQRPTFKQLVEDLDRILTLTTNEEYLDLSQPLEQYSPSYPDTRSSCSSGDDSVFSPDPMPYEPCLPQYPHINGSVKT

Sequence of Ephrin type-B receptor 3 (Homo sapiens) (P54753 whole entry): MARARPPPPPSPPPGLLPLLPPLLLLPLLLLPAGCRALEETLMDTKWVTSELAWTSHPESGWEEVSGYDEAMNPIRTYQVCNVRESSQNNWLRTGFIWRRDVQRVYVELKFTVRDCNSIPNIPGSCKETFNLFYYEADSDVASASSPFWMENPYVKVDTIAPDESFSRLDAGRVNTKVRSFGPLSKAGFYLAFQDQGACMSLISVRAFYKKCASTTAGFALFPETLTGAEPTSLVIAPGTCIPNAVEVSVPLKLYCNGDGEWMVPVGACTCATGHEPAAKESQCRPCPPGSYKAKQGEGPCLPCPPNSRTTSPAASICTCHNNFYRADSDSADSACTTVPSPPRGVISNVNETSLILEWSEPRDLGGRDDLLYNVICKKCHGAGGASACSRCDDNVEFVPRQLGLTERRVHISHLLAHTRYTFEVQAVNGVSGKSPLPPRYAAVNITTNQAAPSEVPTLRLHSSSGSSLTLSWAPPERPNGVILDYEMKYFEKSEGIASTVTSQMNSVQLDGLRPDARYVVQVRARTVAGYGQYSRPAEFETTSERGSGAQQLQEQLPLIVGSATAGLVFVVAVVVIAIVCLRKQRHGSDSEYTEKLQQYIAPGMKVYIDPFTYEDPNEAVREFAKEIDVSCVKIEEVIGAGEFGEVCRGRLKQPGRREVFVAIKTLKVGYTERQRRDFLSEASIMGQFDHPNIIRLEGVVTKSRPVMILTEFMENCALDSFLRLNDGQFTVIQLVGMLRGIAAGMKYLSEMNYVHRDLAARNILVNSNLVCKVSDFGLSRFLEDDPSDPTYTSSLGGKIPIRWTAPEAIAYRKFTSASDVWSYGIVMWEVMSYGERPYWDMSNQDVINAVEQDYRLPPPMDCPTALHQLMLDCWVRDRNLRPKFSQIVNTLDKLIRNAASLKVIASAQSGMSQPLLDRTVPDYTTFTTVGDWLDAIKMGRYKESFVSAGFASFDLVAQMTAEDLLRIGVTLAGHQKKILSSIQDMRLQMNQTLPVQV

CCOC(=O)c1cc2cc(-c3cc(C(=O)NCc4ccc(C(=O)O)cc4)nn3C)ccc2[nH]1 [BI 4394]
residual activity [1]: 100% | residual activity [2]: 87% | residual activity [3]: 90% | residual activity [4]: 95% | residual activity [5]: 100% | residual activity [6]: 94% | inhibition [7]: 8.18% | residual activity [8]: 100% | residual activity [9]: 77% | residual activity [10]: 100% | residual activity [11]: 88% | residual activity [12]: 72% | residual activity [13]: 100% | residual activity [14]: 90% | residual activity [15]: 65% | residual activity [16]: 43% | residual activity [17]: 100% | residual activity [18]: 99% | residual activity [19]: 98% | residual activity [20]: 86% | residual activity [21]: 82% | residual activity [22]: 88% | residual activity [23]: 94% | residual activity [24]: 100% | residual activity [25]: 100% | residual activity [26]: 97% | residual activity [27]: 97% | residual activity [28]: 100% | residual activity [29]: 90% | residual activity [30]: 96% | inhibition [31]: 1.07% | residual activity [32]: 100% | residual activity [33]: 100% | residual activity [34]: 81% | residual activity [35]: 84% | residual activity [36]: 90% | residual activity [37]: 100% | residual activity [38]: 99% | residual activity [39]: 85% | residual activity [40]: 96% | residual activity [41]: 97% | residual activity [42]: 97% | residual activity [43]: 89%

Cn1nc(C(=O)NCc2ccc(C(=O)O)cc2)cc1-c1ccc2[nH]ccc2c1 [BI 4395]
residual activity [1]: 100% | residual activity [2]: 79% | residual activity [3]: 100% | residual activity [4]: 79% | residual activity [5]: 100% | residual activity [6]: 87% | inhibition [7]: -4.12% | residual activity [8]: 84% | residual activity [9]: 96% | residual activity [10]: 78% | residual activity [11]: 91% | residual activity [12]: 66% | residual activity [13]: 100% | residual activity [14]: 90% | residual activity [15]: 97% | residual activity [16]: 88% | residual activity [17]: 93% | residual activity [18]: 91% | residual activity [19]: 80% | residual activity [20]: 96% | residual activity [21]: 91% | residual activity [22]: 91% | residual activity [23]: 78% | residual activity [24]: 92% | residual activity [25]: 80% | residual activity [26]: 100% | residual activity [27]: 82% | residual activity [28]: 100% | residual activity [29]: 65% | residual activity [30]: 91% | inhibition [31]: 29.1% | residual activity [32]: 89% | residual activity [33]: 92% | residual activity [34]: 95% | residual activity [35]: 77% | residual activity [36]: 91% | residual activity [37]: 81% | residual activity [38]: 92% | residual activity [39]: 90% | residual activity [40]: 88% | residual activity [41]: 97% | residual activity [42]: 95% | residual activity [43]: 87%

From ChEMBL document CHEMBL4507281, “Data for DCP probe BI-4394” (2021)
